According to patent US9145392B2, “Imidazole amines as modulators of kinase activity” (Merck Patent GmbH, priority 2011, dated 2015):

Experiments:
P70S6K (T412E mutant) = P70S6K (T412E mutant) (Homo sapiens (Human), UniProt P23443, T412E); assay: P70S6K enzyme assay; format: biochemical; conditions: read-out: IC50 p70S6K
Outline: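 Read-out is the substrate/phosphopeptide ratio from mobility-shift electrophoresis on a LabChip 3000.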

His-AKT (Full Length) = His-AKT (Full Length) (Homo sapiens (Human), UniProt P31749); assay: AKT enzyme assay; format: biochemical; conditions: read-out: IC50 AKT
Chain of His-AKT (Full Length) (P31749 whole entry): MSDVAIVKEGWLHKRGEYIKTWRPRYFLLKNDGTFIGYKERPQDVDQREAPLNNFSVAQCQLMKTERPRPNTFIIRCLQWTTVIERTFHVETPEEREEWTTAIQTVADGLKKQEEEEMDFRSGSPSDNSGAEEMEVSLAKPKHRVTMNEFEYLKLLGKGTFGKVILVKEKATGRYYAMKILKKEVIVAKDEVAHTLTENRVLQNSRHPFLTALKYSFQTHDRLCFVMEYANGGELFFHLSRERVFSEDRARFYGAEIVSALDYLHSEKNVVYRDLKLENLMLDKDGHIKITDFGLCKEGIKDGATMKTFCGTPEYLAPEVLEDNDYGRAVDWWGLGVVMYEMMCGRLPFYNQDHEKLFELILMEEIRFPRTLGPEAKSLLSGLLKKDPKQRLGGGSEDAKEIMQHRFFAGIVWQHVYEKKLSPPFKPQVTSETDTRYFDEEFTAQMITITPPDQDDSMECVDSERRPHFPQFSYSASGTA

Chain of P70S6K (T412E mutant) (P23443 whole entry T412E): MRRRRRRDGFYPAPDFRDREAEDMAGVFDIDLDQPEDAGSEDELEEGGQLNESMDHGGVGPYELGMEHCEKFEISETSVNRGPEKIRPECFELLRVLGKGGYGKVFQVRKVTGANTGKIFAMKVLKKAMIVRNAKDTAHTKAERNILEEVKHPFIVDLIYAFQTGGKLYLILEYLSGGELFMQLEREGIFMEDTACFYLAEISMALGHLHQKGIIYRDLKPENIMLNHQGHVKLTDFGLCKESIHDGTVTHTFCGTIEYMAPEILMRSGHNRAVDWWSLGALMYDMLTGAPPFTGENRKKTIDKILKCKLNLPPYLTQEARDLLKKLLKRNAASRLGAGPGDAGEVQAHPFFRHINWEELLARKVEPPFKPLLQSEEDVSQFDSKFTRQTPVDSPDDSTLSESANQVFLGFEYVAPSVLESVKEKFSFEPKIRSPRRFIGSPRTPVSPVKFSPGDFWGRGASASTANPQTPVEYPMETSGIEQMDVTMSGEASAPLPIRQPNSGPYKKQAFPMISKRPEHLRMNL

Compound | IC50 (P70S6K (T412E mutant)) | IC50 (His-AKT (Full Length))
CCc1c(N)ncnc1N1CCC(c2nc(-c3cncc(Cl)c3)cn2CCN2CCC2)CC1 [Compound 101, 6-(4-(1-(2-(azetidin-1-yl)ethyl)-4-(5-chloropyridin-3-yl)-1H-imidazol-2-yl)piperidin-1-yl)-5-ethylpyrimidin-4-amine] | 7.6 nM | 31 nM
CCOc1c(N)ncnc1N1CCC(c2nc(-c3ccc(F)c(C(F)(F)F)c3)cn2CCN2CCC2)CC1 [Compound 102, 6-(4-(1-(2-(azetidin-1-yl)ethyl)-4-(4-fluoro-3-(trifluoromethyl)phenyl)-1H-imidazol-2-yl)piperidin-1-yl)-5-ethoxypyrimidin-4-amine] | 2.4 nM | 4.1 nM
Nc1ncnc(N2CCC(c3nc(-c4ccc(F)c(C(F)(F)F)c4)cn3CCN3CCC3)CC2)c1OCC(F)(F)F [Compound 103, 6-(4-(1-(2-(azetidin-1-yl)ethyl)-4-(4-fluoro-3-(trifluoromethyl)phenyl)-1H-imidazol-2-yl)piperidin-1-yl)-5-(2,2,2-trifluoroethoxy)pyrimidin-4-amine] | 4.2 nM | 6.6 nM
CCc1c(N)ncnc1N1CCC(c2nc(-c3ccnc(Cl)c3)cn2CCN2CCC2)CC1 [Compound 104, 6-(4-(1-(2-(azetidin-1-yl)ethyl)-4-(2-chloropyridin-4-yl)-1H-imidazol-2-yl)piperidin-1-yl)-5-ethylpyrimidin-4-amine] | 3.1 nM | 16.5 nM
CCc1c(N)ncnc1N1CCC(c2nc(-c3ccnc(C(F)(F)F)c3)cn2CCN2CCC2)CC1 [Compound 105, 6-(4-(1-(2-(azetidin-1-yl)ethyl)-4-(2-(trifluoromethyl)pyridin-4-yl)-1H-imidazol-2-yl)piperidin-1-yl)-5-ethylpyrimidin-4-amine] | 2.7 nM | 13 nM
CCc1c(N)ncnc1N1CCC(c2nc(-c3ccc(F)c(C(N)=O)c3)cn2CCN2CCC2)CC1 [Compound 106, 5-(2-(1-(6-amino-5-ethylpyrimidin-4-yl)piperidin-4-yl)-1-(2-(azetidin-1-yl)ethyl)-1H-imidazol-4-yl)-2-fluorobenzamide] | 21 nM | 49 nM
CCc1c(N)ncnc1N1CCC(c2nc(-c3ccc(OC)c(C(N)=O)c3)cn2CCN2CCC2)CC1 [Compound 107, 5-(2-(1-(6-amino-5-ethylpyrimidin-4-yl)piperidin-4-yl)-1-(2-(azetidin-1-yl)ethyl)-1H-imidazol-4-yl)-2-methoxybenzamide] | 98 nM | 160 nM
CCc1c(N)ncnc1N1CCC(c2nc(-c3ccc(F)c(OC)c3)cn2CCN2CCC2)CC1 [Compound 108, 6-(4-(1-(2-(azetidin-1-yl)ethyl)-4-(4-fluoro-3-methoxyphenyl)-1H-imidazol-2-yl)piperidin-1-yl)-5-ethylpyrimidin-4-amine] | 2.2 nM | 4.8 nM
Nc1ncnc(N2CCC(c3nc(-c4ccc(F)c(C(F)(F)F)c4)cn3CCN3CCC3)CC2)c1-c1cnoc1 [Compound 109, 6-(4-(1-(2-(azetidin-1-yl)ethyl)-4-(4-fluoro-3-(trifluoromethyl)phenyl)-1H-imidazol-2-yl)piperidin-1-yl)-5-(isoxazol-4-yl)pyrimidin-4-amine] | 0.9 nM | 1.6 nM
Nc1ncnc(N2CCC(c3nc(-c4ccc(F)c(C(F)(F)F)c4)cn3CCN3CCC3)CC2)c1-c1cc[nH]c1 [Compound 110, 6-(4-(1-(2-(azetidin-1-yl)ethyl)-4-(4-fluoro-3-(trifluoromethyl)phenyl)-1H-imidazol-2-yl)piperidin-1-yl)-5-(1H-pyrrol-3-yl)pyrimidin-4-amine] | 0.7 nM | 1.9 nM
CCc1c(N)ncnc1N1CCC(c2nc(-c3ccnc(C)c3)cn2CCN2CCC2)CC1 [Compound 111, 6-(4-(1-(2-(azetidin-1-yl)ethyl)-4-(2-methylpyridin-4-yl)-1H-imidazol-2-yl)piperidin-1-yl)-5-ethylpyrimidin-4-amine] | 8.7 nM | 106 nM
CCc1c(N)ncnc1N1CCC(c2nc(-c3ccnc(OC)c3)cn2CCN2CCC2)CC1 [Compound 112, 6-(4-(1-(2-(azetidin-1-yl)ethyl)-4-(2-methoxypyridin-4-yl)-1H-imidazol-2-yl)piperidin-1-yl)-5-ethylpyrimidin-4-amine] | 64.5 nM | 940 nM
CCc1c(N)ncnc1N1CCC(c2nc(-c3cncc(C)c3)cn2CCN2CCC2)CC1 [Compound 113, 6-(4-(1-(2-(azetidin-1-yl)ethyl)-4-(5-methylpyridin-3-yl)-1H-imidazol-2-yl)piperidin-1-yl)-5-ethylpyrimidin-4-amine] | 84 nM | 465 nM
CC(C)c1c(N)ncnc1N1CCC(c2nc(-c3ccc(F)c(C(F)(F)F)c3)cn2CCN2CCC2)CC1 [Compound 114, 6-(4-(1-(2-(azetidin-1-yl)ethyl)-4-(4-fluoro-3-(trifluoromethyl)phenyl)-1H-imidazol-2-yl)piperidin-1-yl)-5-isopropylpyrimidin-4-amine] | 3.6 nM | 6.6 nM
COc1c(N)ncnc1N1CCC(c2nc(-c3ccnc(C(F)(F)F)c3)cn2CCN2CCC2)CC1 [Compound 115, 6-(4-(1-(2-(azetidin-1-yl)ethyl)-4-(2-(trifluoromethyl)pyridin-4-yl)-1H-imidazol-2-yl)piperidin-1-yl)-5-methoxypyrimidin-4-amine] | 2.8 nM | 21 nM
CCOc1c(N)ncnc1N1CCC(c2nc(-c3ccnc(C(F)(F)F)c3)cn2CCN2CCC2)CC1 [Compound 116, 6-(4-(1-(2-(azetidin-1-yl)ethyl)-4-(2-(trifluoromethyl)pyridin-4-yl)-1H-imidazol-2-yl)piperidin-1-yl)-5-ethoxypyrimidin-4-amine] | 2.4 nM | 8.2 nM
CC(C)Oc1c(N)ncnc1N1CCC(c2nc(-c3ccnc(C(F)(F)F)c3)cn2CCN2CCC2)CC1 [Compound 117, 6-(4-(1-(2-(azetidin-1-yl)ethyl)-4-(2-(trifluoromethyl)pyridin-4-yl)-1H-imidazol-2-yl)piperidin-1-yl)-5-isopropoxypyrimidin-4-amine] | 4.9 nM | 9.1 nM
Nc1ncnc(N2CCC(c3nc(-c4ccnc(C(F)(F)F)c4)cn3CCN3CCC3)CC2)c1OCC(F)(F)F [Compound 118, 6-(4-(1-(2-(azetidin-1-yl)ethyl)-4-(2-(trifluoromethyl)pyridin-4-yl)-1H-imidazol-2-yl)piperidin-1-yl)-5-(2,2,2-trifluoroethoxy)pyrimidin-4-amine] | 9.7 nM | 21 nM
CCc1c(N)ncnc1N1CCC(c2nc(-c3cccc(C(F)(F)F)n3)cn2CCN2CCC2)CC1 [Compound 119, 6-(4-(1-(2-(azetidin-1-yl)ethyl)-4-(6-(trifluoromethyl)pyridin-2-yl)-1H-imidazol-2-yl)piperidin-1-yl)-5-ethylpyrimidin-4-amine] | 25 nM | 420 nM
COc1cc(-c2cn(CCN3CCC3)c(C3CCN(c4ncnc(N)c4C#N)CC3)n2)ccc1F [Compound 120, 4-amino-6-(4-(1-(2-(azetidin-1-yl)ethyl)-4-(4-fluoro-3-methoxyphenyl)-1H-imidazol-2-yl)piperidin-1-yl)pyrimidine-5-carbonitrile] | 1 nM | 2.4 nM
COc1cc(-c2cn(CCN3CCC3)c(C3CCN(c4ncnc(N)c4C(N)=O)CC3)n2)ccc1F [Compound 121, 4-amino-6-(4-(1-(2-(azetidin-1-yl)ethyl)-4-(4-fluoro-3-methoxyphenyl)-1H-imidazol-2-yl)piperidin-1-yl)pyrimidine-5-carboxamide] | 1 nM | 2.4 nM
Cc1cc(-c2cn(CCN3CCC3)c(C3CCN(c4ncnc(N)c4C#N)CC3)n2)ccc1F [Compound 122, 4-amino-6-(4-(1-(2-(azetidin-1-yl)ethyl)-4-(4-fluoro-3-methylphenyl)-1H-imidazol-2-yl)piperidin-1-yl)pyrimidine-5-carbonitrile] | 0.7 nM | 2 nM
Cc1cc(-c2cn(CCN3CCC3)c(C3CCN(c4ncnc(N)c4C(N)=O)CC3)n2)ccc1F [Compound 124, 4-amino-6-(4-(1-(2-(azetidin-1-yl)ethyl)-4-(4-fluoro-3-methylphenyl)-1H-imidazol-2-yl)piperidin-1-yl)pyrimidine-5-carboxamide] | 2 nM | 14 nM
N#Cc1c(N)ncnc1N1CCC(c2nc(-c3ccnc(C(F)(F)F)c3)cn2CCN2CCC2)CC1 [Compound 125, 4-amino-6-(4-(1-(2-(azetidin-1-yl)ethyl)-4-(2-(trifluoromethyl)pyridin-4-yl)-1H-imidazol-2-yl)piperidin-1-yl)pyrimidine-5-carbonitrile] | 1.5 nM | 9.7 nM
Nc1ncnc(N2CCC(c3nc(-c4ccnc(C(F)(F)F)c4)cn3CCN3CCC3)CC2)c1Br [Compound 126, 6-(4-(1-(2-(azetidin-1-yl)ethyl)-4-(2-(trifluoromethyl)pyridin-4-yl)-1H-imidazol-2-yl)piperidin-1-yl)-5-bromopyrimidin-4-amine] | 0.5 nM | 2.2 nM
Nc1ncnc(N2CCC(c3nc(-c4ccnc(C(F)(F)F)c4)cn3CCNCCCCl)CC2)c1Br [Compound 127, 5-bromo-6-(4-(1-(2-((3-chloropropyl)amino)ethyl)-4-(2-(trifluoromethyl)pyridin-4-yl)-1H-imidazol-2-yl)piperidin-1-yl)pyrimidin-4-amine] | 1 nM | 2.8 nM
NC(=O)c1c(N)ncnc1N1CCC(c2nc(-c3ccnc(C(F)(F)F)c3)cn2CCN2CCC2)CC1 [Compound 128] | 5.5 nM | 90 nM
N#Cc1c(N)ncnc1N1CCC(c2nc(-c3ccoc3)cn2CCN2CCC2)CC1 [Compound 129, 4-amino-6-(4-(1-(2-(azetidin-1-yl)ethyl)-4-(furan-3-yl)-1H-imidazol-2-yl)piperidin-1-yl)pyrimidine-5-carbonitrile] | 11 nM | 250 nM
N#Cc1c(N)ncnc1N1CCC(c2nc(-c3ccsc3)cn2CCN2CCC2)CC1 [Compound 130, 4-amino-6-(4-(1-(2-(azetidin-1-yl)ethyl)-4-(thiophen-3-yl)-1H-imidazol-2-yl)piperidin-1-yl)pyrimidine-5-carbonitrile] | 2.6 nM | 91 nM
